From a melting point compilation (Tetko et al.; mined from patent text by program, amines drawn as free bases though some values may be those of a salt) come the findings set out here.

Each structure is given as a SMILES string.

The melting point is the temperature, or range, at which the solid turns liquid.

In the case of `O=C(Nc1cc2ncc(CN3CCCC3)cc2cc1N1CCCC1)c1ccc(-c2ccc(F)cc2)cc1`, the melting point is 182 to 184 °C.
In the case of `COc1cccc(OC)c1C(N)=O` it was 208 to 209 °C.
In the case of `OCCOc1cccc(OCc2ccccc2)c1` it was 40.5 to 43.5 °C.
Then `CCCCCCCCCCCCCCCCCCOc1cc(OC(=O)C(c2ccccc2)c2ccccc2)cc(C(=O)O)c1`, with 82 to 86 °C; and `ON=CNc1nc(OCc2ccc(F)cc2)ncc1F`, with 169 to 171 °C.
On to `CS(=O)(=O)N1CCN(c2ccc(N)cc2)CC1`, for which the melting point lay in the range of 192 to 193 °C.
In the case of `Nc1c(C(=O)c2ccccc2OCc2ccccc2)oc2ccc(Cl)cc12` it was 158 to 160 °C.
Then `COC(=O)CCCCCNC(=O)/C=C/C=C/c1ccccc1`, with 125 to 127 °C.
Compound `CN(C)C=C(C#N)C(=O)Nc1ccccc1` returned a melting point of 162 to 164 °C.
Take `CCCCc1ncc(CC(Cc2ccccc2)C(=O)O)n1Cc1ccccc1Cl` (stereo not given): the melting point lay within 118 to 120 °C.
Consider `CCN1c2ncc(CCc3ccncc3)cc2C(=O)N(C)c2ccc(I)nc21`, for which the melting point came to 174 °C.
Then `CC(C)c1ccc(-c2nnc(-c3cccc(C(=O)O)c3)o2)cc1`, with 202 to 204 °C.
Consider `O=C1Nc2ccccc2S(=O)c2ccccc21` (stereo not given), for which the melting point lay in the range of 308 to 310 °C.
Take `O=C(O)C1Oc2cc(Cl)c(S(=O)(=O)c3cc(Cl)cc(Cl)c3)cc2O1` (stereo not given): the melting point fell in the range of 166 to 169 °C.
The compound `Nc1ccc2c(c1)C(c1ccccc1Cl)=CCC(=O)N2` had a melting point of 192 °C.
In the case of `COC(=O)c1cc2ccc(Cl)c(Cl)c2o1` it was 162 °C.
Then `CC(c1ccccc1)C1(OC(=O)C(C)(C)C)C(=O)NC(=O)NC1=O` (stereo not given), with 205 to 207 °C.
Consider `COc1ccc(C(=O)Nc2c(Cl)cncc2Cl)nc1OC1CCCC1`, for which the melting point fell in the range of 164 to 166 °C.
Compound `O=C(c1ccccc1)c1cc(Cl)cc2c(=O)cc[nH]c12` gave a melting point of 193 to 196 °C.
Then `c1cc(OCC2CCCCC2)ccc1Cc1nnn[nH]1`, with 156 to 158 °C; and `CC(=O)c1ccccc1C(O)=S`, with 127 to 129 °C.
Then `O=C1CCCc2[nH]c3ccc(OCc4ccccc4)cc3c21`, with 235 to 237 °C; and `CS(=O)c1ccc(Oc2ccc(Cl)c(Cl)c2)nc1` (stereo not given), with 88 to 90 °C.
Turning to `COc1ccc(OC)c(C(=O)C#CC(=O)O)c1`, the melting point was 91 to 93 °C.
Then `FC(F)(F)Oc1ccc2nc(-c3ccccc3)[nH]c2c1`, with 208 to 210 °C; and `O=C(O)Cc1c(C(=O)c2ccc(Cl)cc2)[nH]c2ccccc12`, with 221 to 224 °C.
As to `Brc1cc(C=Cc2scc3c2OCCO3)ccn1`, the melting point was 127 to 129 °C.
The compound `CCCCCCCCOc1cc(OC)ccc1C=O` came in with a melting point of 37 to 39 °C.
In turn, `COc1cc2c(cc1OC)C(=O)C(CN1CCC(O)(c3ccccc3)CC1)CC2` (stereo not given) showed a melting point of 175 to 177 °C.
In the case of `Fc1cc2c(cc1F)C(Cl)Cc1ccccc1S2` (stereo not given) it was 68 to 71 °C; in that of `CCC(C)c1cc(Cc2cc(C(C)CC)c(N)c(C)c2Cl)c(Cl)c(C)c1N` (stereo not given), 94 to 102 °C; in that of `O=C(NNc1ccccc1)c1ccc(F)cc1F`, 171 to 173 °C.
In the case of `COc1cc(C(C)=O)ccc1C1CCCCO1` (stereo not given), the melting point fell in the range of 67 to 69 °C.
In turn, `COc1ccc(Oc2ccc3c(c2)C=C(C(=O)O)C(C(F)(F)F)O3)cc1` (stereo not given) showed a melting point of 182 to 183 °C.
As to `CCCCCCCCCCCCN(Cc1cccnc1)S(C)(=O)=O`, the melting point is 43 to 44 °C.
In the case of `Cn1cccc1C1=CC(=O)c2nccnc2C1=O` it was 161 to 162 °C.
In the case of `CSC1C(=O)Nc2c(Oc3c(Cl)cccc3Cl)cccc21` (stereo not given) it was over 230 °C; in that of `NS(=O)(=O)c1ccc(-n2nc(C(F)(F)F)cc2-c2nc3ccc(Cl)cc3s2)cc1`, 254 to 255 °C; in that of `CN(C)C(=O)c1ccc(CN(C)C(=O)C23CC4CC(CC(C4)C2)C3)s1`, 145 to 146 °C.
In the case of `COC(C)CCOc1c(-c2ccc(S(C)(=O)=O)cc2)cnn(-c2ccc(F)c(F)c2)c1=O` (stereo not given), the melting point was 99 to 101 °C.
`CCC1(COCCCCCCOc2ccc(C(=O)O)cc2)COC1` gave a melting point of 58.5 °C.
Then `COc1cccc(OC)c1C(=O)Nc1nc[nH]n1`, with 191 to 193 °C; and `CCOC(=O)NCCC(c1cc(F)ccc1F)S(=O)(=O)c1ccc(Cl)cc1` (stereo not given), with 121 to 122 °C; and `Fc1cccc(OC2CN([C@H]3CC[C@@H](c4c[nH]c5ccc(F)cc54)CC3)C2)c1`, with 119 to 125 °C.
In the case of `CCOC(=O)c1cn(Cc2ccccn2)nc1S(=O)(=O)NC(=O)Nc1nc(OC)cc(OC)n1` it was 95 to 96 °C; in that of `CSCC(=O)[C@H](Cc1cccs1)NC(=O)[C@H](CC(C)C)NC(=O)OCc1ccccc1`, 93 to 97 °C.
In the case of `CCOC(=O)C(=Cc1cnccc1OC)N=[N+]=[N-]`, the melting point lay in the range of 92 to 95 °C.
As to `COC(=O)C(O)C(Sc1cc(Oc2cccc(C)c2)ccc1N)c1ccc(OC)cc1` (stereo not given), the melting point lay in the range of 112 to 115 °C.
In the case of `CN(C)S(=O)(=O)c1ccc2c(c1)C(Cl)c1ccccc1C=C2` (stereo not given) it was 140 to 144 °C.
With `CC(C)SC(Cc1ccc(OCCN(C)c2nc3ccccc3o2)cc1)C(=O)O` (stereo not given), the melting point lay within 144 to 145 °C.
The compound `CCOC(=O)CC(C)NC(=O)c1ccc(N2CCN(c3ccncc3)CC2)cc1` (stereo not given) showed a melting point of 130 to 132 °C.
Then `CCCCOC(=O)c1ccc(-c2nc(C(Cl)(Cl)Cl)nc(C(Cl)(Cl)Cl)n2)cc1`, with 109 to 110 °C; and `CCCN1N=C2C(=Cc3ccc(Cl)cc3)CSCC2C1c1ccc(Cl)cc1` (stereo not given), with 118 to 122 °C; and `COC(=O)Cc1nc(-c2ccc(C)cc2)oc1C`, with 59 to 60 °C.
As to `COCCOc1ccc(C=O)c(O)c1`, the melting point lay in the range of 64.5 to 65.5 °C.
In the case of `CCN(CC)c1ccc2nc3c4ccccc4c(=Nc4ccccn4)cc-3oc2c1` it was 169 to 170 °C; in that of `CC(=O)OC1CC2(C)C(CCC2(O)C(C)=O)C2CCC3=CC(=O)CCC3(C)C12` (stereo not given), 160 °C; in that of `NC(=O)c1ccccc1CNC(=S)NC(=O)c1ccccc1`, 147 to 150 °C.
In the case of `Cn1cc(C(=O)Nc2ccccc2-c2ccc(Cl)cc2Cl)c(C(F)(F)F)n1` it was 136 to 140 °C; in that of `C#Cc1cc(F)c(-n2c(=O)c(C)c(C(F)(F)F)n(C)c2=O)cc1NS(C)(=O)=O`, 207 to 208 °C.
Then `Cc1oc(-c2ccccc2)nc1COc1ccc(COc2nn(-c3ccccc3)cc2C=O)cc1`, with 152 to 153 °C.
Compound `CC1=C(C(=O)OC(C)(C)C)C(c2ccccc2I)C(C(=O)OC(C)(C)C)=C(C)N1` came in with a melting point of 184 to 185 °C.
In the case of `O=C(O)CCCCCCCOc1ccccc1` it was 67 to 68 °C.
In the case of `CCCCCCCCCCCCCCCCCCOCC(COC(c1ccccc1)(c1ccccc1)c1ccccc1)OS(=O)(=O)c1ccc(C)cc1` (stereo not given), the melting point lay in the range of 52 to 53 °C.
In the case of `O=C(NC(Cc1ccccc1)C(=O)O)OCc1cc2cc(-c3cncnc3)ccc2o1` (stereo not given) it was 192 °C; in that of `COc1nc2ccc3c(c2o1)C(CCNC(C)=O)CC3` (stereo not given), 126 to 128 °C; in that of `CN(C)CC1COc2ccc(NC(=O)c3ccc(-c4ccc(Cl)cc4)cc3)cc2O1` (stereo not given), 158 to 159 °C.
Then `COc1ccc(O)c(NS(C)(=O)=O)c1`, with 135 to 136 °C; and `Clc1ccc2cc(CBr)c3ccsc3c2c1`, with 144 to 146 °C; and `COc1ccc(-c2[nH]cnc2-c2cc(OC)c(N)c(OC)c2)cc1F`, with 101 to 103 °C.
Regarding `CCc1nc2c(cnn2CC)c(NC2CCOCC2)c1CNC(=O)c1cc(C)cc(C(=O)NCc2ccc(OC)c(-c3cccc(CC4CCN(C)CC4)c3)c2)c1`, the melting point was 115 to 117 °C.
In the case of `COC1CSC2=C(SC1)C(OC(=O)N1CCN(C)CC1)N(c1ccc3ccc(C)nc3n1)C2=O` (stereo not given), the melting point came to 220 °C.
In the case of `COC(=O)CCCC#CCN1C(=O)c2ccccc2C1=O` it was 62 to 63 °C; in that of `CCCc1cc(Cl)nc(-c2cccc(Oc3ccccc3Cl)n2)n1`, 96.5 °C.
In the case of `CCN(CC)CC(=O)Nc1cccc2c1C(=O)c1c(NC(=O)CN(CC)CC)cccc1C2=O` it was 228 to 229 °C; in that of `CS(=O)(=O)c1cc(OCc2ccccc2)cs1`, 108 to 109 °C; in that of `NS(=O)(=O)c1ccccc1OC(F)(F)C(F)Cl` (stereo not given), 113 to 116 °C.
In the case of `COc1cccc2c1CCC(CN1CCC(O)(c3ccccc3)CC1)C2=O` (stereo not given) it was 163 to 165 °C; in that of `CC(C)C(NC(=O)OCc1ccccc1)C(=O)NC(Cc1ccccc1)C(O)C(O)C(Cc1ccccc1)NC(=O)C(NC(=O)OCc1ccccc1)C(C)C` (stereo not given), 231 to 232 °C; in that of `O=c1c2c(Cc3cccc(O)c3)n[nH]c2c2cccnc2n1-c1ccccc1`, 276 to 278 °C.
On to `CCCCCC(Oc1ccc(C2=CCCCCC2)cc1)C(=O)O` (stereo not given), for which the melting point is 69 to 71 °C.
In the case of `CC(C)S(=O)(=O)O[C@H]1C[C@@H](C(=O)O)N(C(=O)c2ccccc2Br)C1` it was 139 to 140 °C; in that of `CC1(C)Oc2ccc(C#N)cc2C(n2nc(-c3c(-c4ccccc4)nn4ccccc34)ccc2=O)C1O` (stereo not given), 209 to 210 °C; in that of `CCOC(=O)C(Cc1ccc(S)cc1)(NC(C)=O)C(=O)OCC`, 125 to 128 °C.
For `CC(=O)Nc1cccc2c(=O)[nH]c3ccccc3c(=O)c12`, the melting point lay in the range of 270 to 272 °C.
Then `CCOC(=O)c1cnc(Nc2ccccc2OCC)[nH]c1=O`, with 220 to 221 °C; and `CC1(C)C2CC[C@]1(C)C(=O)C(C(=O)Nc1ccc(C(F)(F)F)cc1)C2=O` (stereo not given in full), with 78 to 81 °C; and `O=C(O)C1CCc2c([nH]c3ccc(O)cc23)C1` (stereo not given), with 255 to 257 °C.
In turn, `Cc1[nH]c(=O)ccc1C(=O)c1cccs1` showed a melting point of 227 to 228 °C.
`Cc1ccc(-n2c(N)nc3ccccc32)cc1-c1ccco1` yielded a melting point of 155 to 157 °C.
